Measured values as given in the CheMixHub viscosity set.
± gives the uncertainty stated by the source.

Assay: xn = mol fraction of the nth substance listed

CCCN + COCCOCCOC
298.15 K, 101 kPa
Settings	viscosity [mPa·s]
x1 = 0.0113	0.985 ± 0.01
x2 = 0.0044	0.359 ± 0.007
x2 = 0.0179	0.368 ± 0.007
x2 = 0.0461	0.385 ± 0.007
x2 = 0.0659	0.4 ± 0.007
x2 = 0.0913	0.417 ± 0.007
x2 = 0.1293	0.443 ± 0.007
x2 = 0.1685	0.472 ± 0.007
x2 = 0.1892	0.487 ± 0.007
x2 = 0.2354	0.518 ± 0.007
x2 = 0.2682	0.541 ± 0.007
x2 = 0.2727	0.544 ± 0.007
x2 = 0.315	0.575 ± 0.008
x2 = 0.3201	0.579 ± 0.008
x2 = 0.3647	0.613 ± 0.008
x2 = 0.3683	0.615 ± 0.008
x2 = 0.4079	0.644 ± 0.008
x2 = 0.4628	0.679 ± 0.008
x2 = 0.5243	0.721 ± 0.008
x2 = 0.5823	0.757 ± 0.008
x2 = 0.6408	0.796 ± 0.009
x2 = 0.7358	0.84 ± 0.009
x2 = 0.79	0.873 ± 0.009
x2 = 0.8565	0.908 ± 0.009
x2 = 0.897	0.935 ± 0.009
x2 = 0.9375	0.955 ± 0.009

CCCN + COCCOCCOCCOC
298.15 K, 101 kPa
Settings	viscosity [mPa·s]
x2 = 0.0076	0.366 ± 0.007
x2 = 0.0166	0.375 ± 0.007
x2 = 0.0296	0.393 ± 0.007
x2 = 0.0659	0.44 ± 0.007
x2 = 0.0954	0.48 ± 0.007
x2 = 0.1298	0.526 ± 0.007
x2 = 0.1596	0.567 ± 0.008
x2 = 0.1909	0.611 ± 0.008
x2 = 0.2265	0.659 ± 0.008
x2 = 0.2351	0.673 ± 0.008
x2 = 0.2622	0.711 ± 0.008
x2 = 0.2681	0.721 ± 0.008
x2 = 0.3073	0.782 ± 0.009
x2 = 0.3623	0.864 ± 0.009
x2 = 0.4044	0.935 ± 0.009
x2 = 0.4583	1.022 ± 0.01
x2 = 0.5139	1.115 ± 0.01
x2 = 0.5761	1.225 ± 0.011
x2 = 0.6483	1.365 ± 0.012
x2 = 0.6867	1.435 ± 0.012
x2 = 0.745	1.549 ± 0.013
x2 = 0.8308	1.72 ± 0.014
x2 = 0.8787	1.805 ± 0.014
x2 = 0.9203	1.862 ± 0.015
x2 = 0.9618	1.917 ± 0.015

CC(C)C(C)O (centres undefined) + COc1ccccc1
viscosity [mPa·s], 101.33 kPa
Settings	x2 = 0.1006	x2 = 0.2007	x2 = 0.3004	x2 = 0.4	x2 = 0.5008	x2 = 0.6009	x2 = 0.6997	x2 = 0.8003	x2 = 0.8998
303.15 K	2.405 ± 0.029	1.858 ± 0.022	1.476 ± 0.018	1.223 ± 0.015	1.067 ± 0.013	0.981 ± 0.012	0.937 ± 0.011	0.919 ± 0.011	0.913 ± 0.011
313.15 K	1.731 ± 0.021	1.397 ± 0.017	1.157 ± 0.014	0.991 ± 0.012	0.889 ± 0.011	0.832 ± 0.01	0.808 ± 0.01	0.799 ± 0.01	0.794 ± 0.01
323.15 K	1.273 ± 0.015	1.066 ± 0.013	0.925 ± 0.011	0.83 ± 0.01	0.771 ± 0.009	0.736 ± 0.009	0.718 ± 0.009	0.707 ± 0.009	0.699 ± 0.009

Clc1ccccc1Cl + COc1ccccc1
viscosity [mPa·s], 101 kPa
Settings	x2 = 0.0977	x2 = 0.1979	x2 = 0.3012	x2 = 0.403	x2 = 0.4955	x2 = 0.5995	x2 = 0.6967	x2 = 0.7951	x2 = 0.8931
298.15 K	1.201 ± 0.011	1.172 ± 0.011	1.142 ± 0.01	1.118 ± 0.01	1.097 ± 0.01	1.081 ± 0.01	1.056 ± 0.0099	1.037 ± 0.0097	1.022 ± 0.0096
303.15 K	1.121 ± 0.01	1.094 ± 0.01	1.067 ± 0.0099	1.042 ± 0.0097	1.019 ± 0.0096	1 ± 0.0095	0.9808 ± 0.0094	0.9631 ± 0.0093	0.9486 ± 0.0092
308.15 K	1.046 ± 0.0097	1.02 ± 0.0096	0.9938 ± 0.0094	0.9716 ± 0.0093	0.949 ± 0.0091	0.9288 ± 0.009	0.9098 ± 0.0089	0.8944 ± 0.0088	0.881 ± 0.0088
313.15 K	0.9762 ± 0.0094	0.9514 ± 0.0092	0.9268 ± 0.009	0.9045 ± 0.0089	0.8869 ± 0.0088	0.8664 ± 0.0086	0.8479 ± 0.0085	0.832 ± 0.0085	0.8178 ± 0.0084
